# Data taken from ChEMBL document CHEMBL1201862, “PubChem BioAssay data set” (2004).
# Calls of active or inactive are those of the source.
# Tests used:
# [1] = target: T1, Short transient receptor potential channel 4 (Mus musculus, UniProt Q9QUQ5); assay: mouse TRPC4 channel inhibitors, dose response, cell-based, HEK293 TRPC4/mu-opioid, Fluo-4 calcium (AID 434942); assay type: functional;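 note: potency of inhibitors blocking the TRPC4 calcium response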
# T1 sequence (Q9QUQ5 whole entry): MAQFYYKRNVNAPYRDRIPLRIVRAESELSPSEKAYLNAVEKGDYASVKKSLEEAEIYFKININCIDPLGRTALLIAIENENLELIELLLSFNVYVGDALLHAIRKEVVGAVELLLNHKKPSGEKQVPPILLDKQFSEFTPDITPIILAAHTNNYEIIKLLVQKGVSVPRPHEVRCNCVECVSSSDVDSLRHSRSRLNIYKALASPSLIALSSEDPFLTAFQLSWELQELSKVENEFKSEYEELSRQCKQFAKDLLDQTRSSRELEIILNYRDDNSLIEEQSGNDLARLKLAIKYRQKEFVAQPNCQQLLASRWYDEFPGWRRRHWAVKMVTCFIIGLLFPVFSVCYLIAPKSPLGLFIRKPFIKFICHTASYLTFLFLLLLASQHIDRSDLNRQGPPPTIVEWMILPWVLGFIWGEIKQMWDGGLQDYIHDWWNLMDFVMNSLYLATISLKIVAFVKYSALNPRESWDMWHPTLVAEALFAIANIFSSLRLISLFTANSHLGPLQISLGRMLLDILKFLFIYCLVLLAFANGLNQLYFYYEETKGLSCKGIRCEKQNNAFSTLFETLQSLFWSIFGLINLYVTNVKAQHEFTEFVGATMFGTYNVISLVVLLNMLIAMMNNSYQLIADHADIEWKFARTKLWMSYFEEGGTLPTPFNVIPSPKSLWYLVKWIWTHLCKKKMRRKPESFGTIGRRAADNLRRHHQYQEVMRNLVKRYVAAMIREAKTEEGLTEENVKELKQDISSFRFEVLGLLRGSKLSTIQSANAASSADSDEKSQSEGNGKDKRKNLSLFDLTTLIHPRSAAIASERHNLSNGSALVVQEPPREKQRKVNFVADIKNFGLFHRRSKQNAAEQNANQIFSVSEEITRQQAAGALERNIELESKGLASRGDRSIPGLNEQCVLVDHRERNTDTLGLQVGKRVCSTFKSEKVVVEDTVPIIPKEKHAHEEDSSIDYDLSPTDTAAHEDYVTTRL
# Genome polyprotein = Genome polyprotein (dengue virus type 2, UniProt P29990); assay: Dengue-2 NS5 methyltransferase inhibitors, primary screen, biochemical, confirmation dose response (AID 588689); assay type: functional
# [2] = target: T2, Polyadenylate-binding protein 1 (Homo sapiens, UniProt P11940); assay: PABP1 MLLE–PAM2 interaction inhibitors, dose response, miRNA deadenylation inhibitor project, biochemical, fluorescence polarization, Cy5-PAM2 peptide, secondary (AID 602260); assay type: functional; conditions: read-out: IC50_Mean
# [3] = target: T2, Polyadenylate-binding protein 1; assay: PABP1 MLLE–PAM2 binding inhibitor potency, dose response, biochemical, fluorescence polarization, FITC-PAM2 peptide (AID 602259); assay type: functional; conditions: read-out: IC50_Mean
# [4] = intracellular Trypanosoma cruzi inhibitors in host cells – cell-based, plate reader, cherry-pick samples, set 3, dose response (AID 651818); assay type: functional;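 note: compounds incubated with infected cells for about four days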
# [5] = target: Heat shock protein HSP 90-alpha (Homo sapiens, UniProt P07900); assay type: functional, organism-based
# [6] = target: T3, Microphthalmia-associated transcription factor (Homo sapiens, UniProt O75030); assay: TRPM1 promoter luciferase signal decrease, dose response, MITF inhibitor project, cell-based, SK-MEL-5, cherry-picked, set 3 (AID 493073); assay type: functional
# T3 sequence (O75030 whole entry): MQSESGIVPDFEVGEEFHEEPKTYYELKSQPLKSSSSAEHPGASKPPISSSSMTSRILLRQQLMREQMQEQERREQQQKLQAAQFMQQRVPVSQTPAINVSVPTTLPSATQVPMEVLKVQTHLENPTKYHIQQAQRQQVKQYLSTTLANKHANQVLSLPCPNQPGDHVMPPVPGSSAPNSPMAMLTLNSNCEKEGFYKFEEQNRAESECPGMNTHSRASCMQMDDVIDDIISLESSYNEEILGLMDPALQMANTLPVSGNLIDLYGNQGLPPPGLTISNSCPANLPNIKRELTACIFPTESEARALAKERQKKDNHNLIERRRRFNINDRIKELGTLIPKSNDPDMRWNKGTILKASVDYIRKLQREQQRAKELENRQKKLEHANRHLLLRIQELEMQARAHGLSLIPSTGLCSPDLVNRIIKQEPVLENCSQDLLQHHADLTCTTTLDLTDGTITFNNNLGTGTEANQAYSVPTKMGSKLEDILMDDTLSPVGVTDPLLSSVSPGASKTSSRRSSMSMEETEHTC
# Cytochrome P450 3A4 = Cytochrome P450 3A4 (Homo sapiens, UniProt P08684); conditions: Potency;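 note: confirmatory qHTS run detecting inhibitors and substrates of CYP3A4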
# [7] = NIH-3T3 fibroblast cytotoxicity, dose response, cytotoxicity control, cell-based, fluorescence, Alamar Blue, secondary assay (AID 2327); assay type: functional;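 note: NIH-3T3 mouse fibroblasts cultured with fluconazole at 8 µg/mL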
# [8] = inhibitors of firefly luciferase expression or activity, dose response, H4 neuroglioma cells, luminescence (AID 1990); assay type: functional, cell-based
# cells [9] = assay type: functional, cell-based
# [10] = Luminescence Cell-Based Dose Response HTS to Identify Inhibitors of 5'UTR Stem-Loop Driven Prion Protein mRNA Translation in H4 Neuroglioblastoma Cells. [Related pubchem assays: 1827 (Project Summary), 1813 (Primary HTS)]; assay type: functional
# [11] = inhibitors of SNCA 5'UTR-driven reporter translation, confirmation, H4 neuroglioma cells, luminescence (AID 1988); assay type: functional, cell-based
# [12] = C. albicans growth with fluconazole, confirmation, fluorescence, retest (AID 2467); assay type: functional, cell-based
# cells [13] = assay type: functional, cell-based; remark: listed apart in the source
# Nonstructural protein 1 = Nonstructural protein 1 (Influenza A virus, UniProt Q194T2); assay type: functional, Influenza A virus (A/California/07/2009(H1N1))
# INS1 = assay: beta cell apoptosis inhibitors, cytokine rescue, dose response, luminescence, retest (AID 449756); assay type: functional, cell-based; conditions: Rattus norvegicus;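 note: cell death triggered by IL-1 beta plus TNF-alpha plus IFN-gamma mixture; protective hits raise ATP signal compared with cytokine alone wells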
# [14] = Shn3 3'UTR reporter inhibitors, dose response, cell-based, Clone20 osteoblasts, firefly luciferase, cherry-picked (AID 624132); assay type: functional;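 note: firefly luciferase luminescence from reporter carrying the Shn3 3'UTR in osteoblasts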
# [15] = HepG2 cell cytotoxicity, dose response, cytotoxicity control for Shn3 inhibitor project, CellTiter-Glo, cherry-picked (AID 624134); assay type: functional, cell-based
# [16] = control 3'UTR Renilla luciferase suppression, dose response, counter-screen for Shn3 inhibitor project, cell-based, Clone20-Shn3RL, cherry-picked (AID 624133); assay type: functional
# BJ [17] = assay: cytotoxicity toward BJ-TERT fibroblasts, dose response, cell-based, RAS-independent, luminescence (AID 1933); assay type: functional; conditions: Homo sapiens
# BJ [18] = assay: cells; assay type: functional, cell-based; conditions: Homo sapiens
# BJ [19] = assay: cytotoxicity toward BJ-TERT-LT-ST fibroblasts, dose response, cell-based, RAS-independent, luminescence (AID 1935); assay type: functional; conditions: Homo sapiens;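 note: BJ fibroblasts immortalized with TERT plus LT and ST oncogenes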
# [20] = cytotoxicity toward DRD oncogenic fibroblasts, dose response, cell-based, non-viral oncogenic, luminescence (AID 1934); assay type: functional; conditions: Homo sapiens
# Paired box protein Pax-8 = Paired box protein Pax-8 (Homo sapiens, UniProt Q06710); assay: inhibitors of PAX8-driven TPO luciferase reporter, dose response, RMG-I cells, cherry-pick (AID 687027); assay type: functional, cell-based;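 note: luciferase reporter driven by Pax8 target thyroperoxidase promoter measured by SteadyGlo luminescence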
# [21] = NIH:OVCAR-3 ovarian cancer cell cytotoxicity, dose response, PAX8 inhibitor project, plate reader, dry powder samples (AID 743044); assay type: functional, cell-based
# [22] = cytotoxicity in OVCAR8 ovarian cancer cells, dose response, PAX8 project, cell-based, plate reader, dry powder samples (AID 743197); assay type: functional; conditions: OVCAR-8
# [23] = inhibitors of HIV Env-driven cell fusion, dose response, cherry-pick (AID 652057); assay type: functional, cell-based
# [24] = inhibitors of clade B AD8 Env fusion, dose response, cell-based, cherry-pick (AID 652062); assay type: functional;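 note: luciferase signal from cell-cell fusion driven by HIV-1 clade B AD8 Env; potency is for inhibitors of fusion seen as a drop in luminescence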
# Cytochrome P450 3A4, sequence (P08684 whole entry): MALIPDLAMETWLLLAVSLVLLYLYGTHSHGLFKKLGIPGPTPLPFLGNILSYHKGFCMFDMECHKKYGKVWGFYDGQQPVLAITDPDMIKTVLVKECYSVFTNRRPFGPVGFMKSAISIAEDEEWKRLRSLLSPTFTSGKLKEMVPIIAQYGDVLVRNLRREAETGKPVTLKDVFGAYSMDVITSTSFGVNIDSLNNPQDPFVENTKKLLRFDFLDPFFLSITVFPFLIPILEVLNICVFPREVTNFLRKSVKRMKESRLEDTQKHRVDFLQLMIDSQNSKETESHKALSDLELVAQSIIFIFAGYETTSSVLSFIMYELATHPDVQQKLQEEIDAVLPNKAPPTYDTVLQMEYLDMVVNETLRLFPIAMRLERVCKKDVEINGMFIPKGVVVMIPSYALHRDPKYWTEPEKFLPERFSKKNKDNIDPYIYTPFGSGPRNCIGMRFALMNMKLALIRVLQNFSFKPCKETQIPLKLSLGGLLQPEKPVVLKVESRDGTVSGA
# Paired box protein Pax-8, sequence (Q06710 whole entry): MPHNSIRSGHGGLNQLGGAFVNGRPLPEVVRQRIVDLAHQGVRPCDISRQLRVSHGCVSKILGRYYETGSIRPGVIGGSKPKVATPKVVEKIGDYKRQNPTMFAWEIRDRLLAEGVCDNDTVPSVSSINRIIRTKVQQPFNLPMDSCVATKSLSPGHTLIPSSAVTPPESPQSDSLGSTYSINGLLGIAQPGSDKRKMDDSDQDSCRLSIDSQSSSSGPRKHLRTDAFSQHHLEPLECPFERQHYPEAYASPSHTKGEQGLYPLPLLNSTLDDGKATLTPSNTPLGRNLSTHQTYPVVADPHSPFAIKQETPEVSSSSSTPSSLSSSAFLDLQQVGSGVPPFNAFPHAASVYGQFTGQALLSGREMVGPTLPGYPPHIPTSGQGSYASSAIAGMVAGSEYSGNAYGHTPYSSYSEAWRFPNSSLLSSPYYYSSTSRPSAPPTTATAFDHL
# Genome polyprotein, sequence (P29990 2492-3391 limits assumed): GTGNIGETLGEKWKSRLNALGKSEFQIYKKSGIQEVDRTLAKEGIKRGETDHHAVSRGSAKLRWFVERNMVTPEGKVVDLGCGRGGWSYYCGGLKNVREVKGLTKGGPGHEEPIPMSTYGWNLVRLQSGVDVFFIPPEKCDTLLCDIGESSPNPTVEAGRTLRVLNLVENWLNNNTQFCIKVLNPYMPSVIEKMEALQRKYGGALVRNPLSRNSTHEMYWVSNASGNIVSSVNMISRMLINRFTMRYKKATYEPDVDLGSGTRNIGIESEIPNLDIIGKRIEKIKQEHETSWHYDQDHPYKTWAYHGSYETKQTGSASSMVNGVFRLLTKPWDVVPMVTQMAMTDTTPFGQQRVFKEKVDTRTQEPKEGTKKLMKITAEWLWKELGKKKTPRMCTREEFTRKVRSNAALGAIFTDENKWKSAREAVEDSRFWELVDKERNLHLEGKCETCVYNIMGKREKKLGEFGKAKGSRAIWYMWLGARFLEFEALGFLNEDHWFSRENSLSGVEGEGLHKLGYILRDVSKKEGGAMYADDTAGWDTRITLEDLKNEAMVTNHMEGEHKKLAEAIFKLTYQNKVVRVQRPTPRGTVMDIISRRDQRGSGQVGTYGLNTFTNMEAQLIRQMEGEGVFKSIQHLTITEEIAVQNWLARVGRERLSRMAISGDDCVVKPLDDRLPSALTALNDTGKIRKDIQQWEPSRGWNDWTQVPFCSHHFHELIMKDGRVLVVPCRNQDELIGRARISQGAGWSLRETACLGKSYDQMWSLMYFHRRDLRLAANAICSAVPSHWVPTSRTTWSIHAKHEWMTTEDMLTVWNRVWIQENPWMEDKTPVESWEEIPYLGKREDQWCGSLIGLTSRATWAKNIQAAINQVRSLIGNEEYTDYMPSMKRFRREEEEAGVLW
# T2 sequence (P11940 whole entry): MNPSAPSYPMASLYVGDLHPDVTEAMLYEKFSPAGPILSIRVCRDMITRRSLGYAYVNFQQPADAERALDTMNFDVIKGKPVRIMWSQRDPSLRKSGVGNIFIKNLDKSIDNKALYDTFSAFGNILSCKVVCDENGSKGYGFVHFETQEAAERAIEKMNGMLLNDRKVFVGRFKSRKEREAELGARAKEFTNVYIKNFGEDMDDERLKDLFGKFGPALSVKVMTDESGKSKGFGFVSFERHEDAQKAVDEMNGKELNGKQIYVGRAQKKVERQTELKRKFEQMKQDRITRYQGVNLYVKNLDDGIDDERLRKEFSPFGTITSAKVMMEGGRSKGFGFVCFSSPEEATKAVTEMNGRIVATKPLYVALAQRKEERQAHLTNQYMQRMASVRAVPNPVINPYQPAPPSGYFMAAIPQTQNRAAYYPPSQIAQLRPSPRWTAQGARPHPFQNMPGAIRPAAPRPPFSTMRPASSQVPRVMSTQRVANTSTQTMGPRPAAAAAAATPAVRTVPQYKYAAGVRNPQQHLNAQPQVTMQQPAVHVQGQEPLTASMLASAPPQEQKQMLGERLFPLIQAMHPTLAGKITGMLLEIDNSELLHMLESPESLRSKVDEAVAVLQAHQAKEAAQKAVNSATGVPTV
# Nonstructural protein 1, sequence (Q194T2 whole entry): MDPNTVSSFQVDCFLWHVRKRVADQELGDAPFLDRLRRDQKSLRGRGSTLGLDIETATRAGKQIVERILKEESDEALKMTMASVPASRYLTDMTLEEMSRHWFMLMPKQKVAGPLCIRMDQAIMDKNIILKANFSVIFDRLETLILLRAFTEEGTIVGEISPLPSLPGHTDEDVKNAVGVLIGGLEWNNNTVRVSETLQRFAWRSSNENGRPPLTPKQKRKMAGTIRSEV
compound,measurement,setting,value
CCC1C=C(c2ccccc2)C=CN=C1N(CC)CC (stereo not given),EC50,[1],4.22 µM (active)
N#Cc1c(N)sc(=S)c2c1CCCC2,IC50,Genome polyprotein,90.8 µM (active)
same,IC50,[2],> 66 µM (inactive)
same,IC50,[3],57.4 µM (inactive)
C[C@H]1CN([C@@H](C)CO)C(=O)Cc2cc(NC(=O)Nc3ccccc3)ccc2O[C@H]1CN(C)Cc1ccc(C(=O)Nc2ccccc2N)cc1,AC50,[4],2.93 µM (active)
C[C@H](CO)N1C[C@H](C)[C@H](CN(C)C(=O)Nc2ccc(C(F)(F)F)cc2)Oc2ccc(NC(=O)Nc3ccc(C(F)(F)F)cc3)cc2C1=O,AC50,[4],4.23 µM (active)
O=C1c2cc(Cl)ccc2-c2c(O)cc(Cl)cc21,AC50,[5],2.08 µM (active)
CCCCNC(=O)Nc1ccc(C2SCCS2)cc1,AC50,[6],35.3 µM (active)
C[C@H]1CN([C@@H](C)CO)C(=O)c2cc(NC(=O)Nc3cccc4ccccc34)ccc2O[C@@H]1CN(C)Cc1ccc(Cl)c(Cl)c1,AC50,[4],3.43 µM (active)
CC(C)c1nc(CNC(=O)CC2C(=O)NCCN2Cc2ccc(F)cc2Cl)cs1 (stereo not given),EC50,[1],1.88 µM (active)
CC(=O)N1[C@H](C)C=C[C@]1(Cc1ccccc1)C(=O)NCc1ccccn1,AC50,Cytochrome P450 3A4,12.6 µM (inconclusive)
C[C@@H]1CN([C@H](C)CO)C(=O)c2cccc(NC(=O)Nc3ccc(C(F)(F)F)cc3)c2O[C@@H]1CN(C)Cc1ccc2c(c1)OCO2,AC50,[4],2.54 µM (active)
Oc1c(C(Nc2cccc(C(F)(F)F)c2)c2ccncc2)ccc2cccnc12 (stereo not given),EC50,[7],18.3 µM (active)
same,EC50,[8],11.9 µM (active)
same,EC50,cells [9],9.32 µM (active)
same,EC50,[10],15.3 µM (active)
same,EC50,[11],9.42 µM (active)
same,EC50,[12],3.42 µM (active)
same,EC50,cells [13],> 350 µM (not active)
same,IC50,Nonstructural protein 1,8.76 µM (active)
same,AC50,[5],6.48 µM (active)
same,AC50,INS1,3.82 µM (active)
same,AC50,[14],5.8 µM (active)
same,AC50,[15],7.21 µM (active)
same,AC50,[16],6.9 µM (active)
CC1CCc2c(sc(/N=C/N(C)C)c2C#N)C1 (stereo not given),EC50,[1],2.99 µM (active)
O=C(NC(=S)NNC(=O)c1cnccn1)c1ccc(Cl)cc1,EC50,[7],5.78 µM (active)
same,EC50,[8],11.9 µM (active)
same,EC50,BJ [17],22.8 µM (active)
same,EC50,[10],9.78 µM (active)
same,EC50,[11],9.3 µM (active)
same,EC50,BJ [18],> 150 µM (not active)
same,EC50,[12],1.69 µM (active)
same,EC50,BJ [19],> 150 µM (not active)
same,EC50,[20],25.5 µM (active)
same,IC50,Nonstructural protein 1,3.01 µM (active)
COc1c(CC=C(C)C)c2c(c3oc(=O)c(-c4ccc(O)cc4)c(O)c13)C=CC(C)(C)O2 [SCANDENIN],AC50,Cytochrome P450 3A4,20 µM (inconclusive)
C[C@H](CO)N1C[C@H](C)[C@@H](CN(C)Cc2ccc(Oc3ccccc3)cc2)Oc2c(NC(=O)Nc3ccccc3)cccc2C1=O,AC50,[4],2.17 µM (active)
Cc1ccc([N+](=O)[O-])cc1N,AC50,Cytochrome P450 3A4,31.6 µM (inconclusive)
O=C(O)c1sccc1S(=O)(=O)Nc1ccc(Cl)cc1,AC50,Cytochrome P450 3A4,7.94 µM (inconclusive)
COc1cc2cc(Oc3ccc4ccc(=O)oc4c3)c(=O)oc2cc1O [DAPHNORETIN],AC50,Cytochrome P450 3A4,0.501 µM (inconclusive)
COc1ccc2c3c([nH]c2c1)[C@H](CO)N(C(=O)Nc1cccc(F)c1)CC31CCN(S(=O)(=O)c2cccc(C)c2)CC1,AC50,Paired box protein Pax-8,5.2 µM (active)
same,AC50,[21],42.4 µM (active)
same,AC50,[22],> 70 µM (inactive)
C[C@H](CO)N1C[C@H](C)[C@H](CN(C)Cc2ccc(C(F)(F)F)cc2)OCCCC[C@H](C)Oc2ccc(NC(=O)NC3CCCCC3)cc2C1=O,AC50,Paired box protein Pax-8,10.1 µM (active)
same,AC50,[21],41.6 µM (active)
same,AC50,[22],41.7 µM (active)
COc1cccc(NC(=O)CCC(=O)N2CC(C)Oc3ccc(C)cc32)c1 (stereo not given),EC50,[1],0.531 µM (active)
CC(=O)NNc1ccccc1,AC50,Cytochrome P450 3A4,31.6 µM (inconclusive)
C[C@H](CO)N1C[C@H](C)[C@H](CN(C)C(=O)C2CC2)OCc2ccccc2-c2c(n(C)c3ccccc23)C1=O,AC50,[23],0.426 µM (active)
same,AC50,[24],0.836 µM (active)
O=C1[C@@H]2C(c3cccnc3)=NO[C@@H]2C(=O)N1c1ccc(Br)cc1,AC50,[5],5.67 µM (active)
COC(=O)[C@@H]1C[C@@]2(O)[C@@H](O)[C@@H](O)[C@@H](O)C[C@H]2N1Cc1cc(F)ccc1F,AC50,Cytochrome P450 3A4,25.1 µM (inconclusive)
C[C@@H]1CN([C@H](C)CO)C(=O)c2cccc(NC(=O)Nc3cccc4ccccc34)c2O[C@@H]1CN(C)S(=O)(=O)c1ccc(Cl)cc1,AC50,Paired box protein Pax-8,5.69 µM (active)
same,AC50,[21],43.3 µM (active)
same,AC50,[22],56.3 µM (active)
C[C@@H]1CN([C@H](C)CO)C(=O)c2cc(NC(=O)Nc3ccc(C(F)(F)F)cc3)ccc2O[C@@H](C)CCCCO[C@H]1CN(C)S(=O)(=O)c1ccccc1,AC50,Paired box protein Pax-8,2.23 µM (active)
same,AC50,[21],31.8 µM (active)
COc1cccc(/C=C2/C(=O)NN(c3ccc(F)cc3)C2=O)c1,IC50,Genome polyprotein,38.1 µM (active)
C[C@@H]1CN([C@@H](C)CO)C(=O)c2cc(NS(=O)(=O)c3ccc(Cl)cc3)ccc2O[C@H]1CN(C)Cc1ccc(Cl)c(Cl)c1,AC50,[4],3.37 µM (active)
C[C@H](CO)N1C[C@H](C)[C@H](CN(C)Cc2ccc(C(F)(F)F)cc2)OCCCC[C@H](C)Oc2ccc(NS(=O)(=O)c3ccc(F)cc3)cc2C1=O,AC50,Paired box protein Pax-8,7.71 µM (active)
same,AC50,[21],53.3 µM (active)
same,AC50,[22],58.2 µM (active)
CCOc1ccc(Cl)cc1/C=N/O,EC50,[1],4.22 µM (active)
Cc1cc(C(=O)N/N=C\c2cc(C(C)(C)C)ccc2O)[nH]n1,EC50,[1],6.68 µM (active)
